Measured values published in ChEMBL document CHEMBL1759974, “Discovery of triazine-benzimidazoles as selective inhibitors of mTOR” (Bioorg Med Chem Lett, 2011).
≈ marks a conversion by molar mass, not a printed value.

Legend:
[1] = test system: Rattus norvegicus; assay: In vivo clearance in bile-duct cannulated rat assessed as multiple glucuronidation metabolites in bile by LC/MS analysis; type: ADME, organism-based
[2] = Oral bioavailability in Sprague-Dawley rat at 2 mg/kg; type: ADME, organism-based; conditions: in vivo
[3] = molecular target: T1, Serine/threonine-protein kinase mTOR (Homo sapiens, UniProt P42345)
[4] = Clearance in Sprague-Dawley rat at 1 mg/kg, iv and 2 mg/kg, po; type: ADME, organism-based; conditions: in vivo
[5] = molecular target: T2, Phosphatidylinositol 4,5-bisphosphate 3-kinase catalytic subunit delta isoform (Homo sapiens, UniProt O00329)
T2 sequence (O00329 whole entry): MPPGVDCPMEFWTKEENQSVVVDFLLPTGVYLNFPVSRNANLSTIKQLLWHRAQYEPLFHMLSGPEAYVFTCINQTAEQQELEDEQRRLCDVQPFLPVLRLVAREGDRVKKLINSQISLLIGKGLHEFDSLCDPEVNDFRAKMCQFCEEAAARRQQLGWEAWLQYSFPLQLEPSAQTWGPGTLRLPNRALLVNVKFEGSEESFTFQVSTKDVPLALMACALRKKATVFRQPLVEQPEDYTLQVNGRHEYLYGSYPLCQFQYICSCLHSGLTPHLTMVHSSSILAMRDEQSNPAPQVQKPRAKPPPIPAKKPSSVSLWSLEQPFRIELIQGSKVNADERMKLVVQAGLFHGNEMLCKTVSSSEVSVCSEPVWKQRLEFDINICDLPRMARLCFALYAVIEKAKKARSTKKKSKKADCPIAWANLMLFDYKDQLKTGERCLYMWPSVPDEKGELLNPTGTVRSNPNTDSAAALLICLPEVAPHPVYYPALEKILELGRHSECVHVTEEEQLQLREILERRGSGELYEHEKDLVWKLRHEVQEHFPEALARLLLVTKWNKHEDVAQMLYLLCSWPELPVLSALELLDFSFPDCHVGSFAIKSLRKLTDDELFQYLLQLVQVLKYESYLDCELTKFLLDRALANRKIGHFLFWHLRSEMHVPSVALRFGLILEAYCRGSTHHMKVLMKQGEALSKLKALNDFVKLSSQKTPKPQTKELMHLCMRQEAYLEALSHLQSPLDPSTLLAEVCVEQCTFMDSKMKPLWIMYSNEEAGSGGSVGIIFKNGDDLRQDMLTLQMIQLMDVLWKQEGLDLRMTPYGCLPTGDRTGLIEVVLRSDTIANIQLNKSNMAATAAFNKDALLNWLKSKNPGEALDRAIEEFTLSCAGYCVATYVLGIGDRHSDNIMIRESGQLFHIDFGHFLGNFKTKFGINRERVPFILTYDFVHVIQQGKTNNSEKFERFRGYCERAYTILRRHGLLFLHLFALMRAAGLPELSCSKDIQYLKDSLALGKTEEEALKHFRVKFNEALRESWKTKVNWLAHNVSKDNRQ

[6] = molecular target: Phosphatidylinositol 4,5-bisphosphate 3-kinase catalytic subunit alpha isoform (Homo sapiens, UniProt P42336)
Phosphatidylinositol 4,5-bisphosphate 3-kinase catalytic subunit alpha isoform, sequence (P42336 whole entry, canonical isoform): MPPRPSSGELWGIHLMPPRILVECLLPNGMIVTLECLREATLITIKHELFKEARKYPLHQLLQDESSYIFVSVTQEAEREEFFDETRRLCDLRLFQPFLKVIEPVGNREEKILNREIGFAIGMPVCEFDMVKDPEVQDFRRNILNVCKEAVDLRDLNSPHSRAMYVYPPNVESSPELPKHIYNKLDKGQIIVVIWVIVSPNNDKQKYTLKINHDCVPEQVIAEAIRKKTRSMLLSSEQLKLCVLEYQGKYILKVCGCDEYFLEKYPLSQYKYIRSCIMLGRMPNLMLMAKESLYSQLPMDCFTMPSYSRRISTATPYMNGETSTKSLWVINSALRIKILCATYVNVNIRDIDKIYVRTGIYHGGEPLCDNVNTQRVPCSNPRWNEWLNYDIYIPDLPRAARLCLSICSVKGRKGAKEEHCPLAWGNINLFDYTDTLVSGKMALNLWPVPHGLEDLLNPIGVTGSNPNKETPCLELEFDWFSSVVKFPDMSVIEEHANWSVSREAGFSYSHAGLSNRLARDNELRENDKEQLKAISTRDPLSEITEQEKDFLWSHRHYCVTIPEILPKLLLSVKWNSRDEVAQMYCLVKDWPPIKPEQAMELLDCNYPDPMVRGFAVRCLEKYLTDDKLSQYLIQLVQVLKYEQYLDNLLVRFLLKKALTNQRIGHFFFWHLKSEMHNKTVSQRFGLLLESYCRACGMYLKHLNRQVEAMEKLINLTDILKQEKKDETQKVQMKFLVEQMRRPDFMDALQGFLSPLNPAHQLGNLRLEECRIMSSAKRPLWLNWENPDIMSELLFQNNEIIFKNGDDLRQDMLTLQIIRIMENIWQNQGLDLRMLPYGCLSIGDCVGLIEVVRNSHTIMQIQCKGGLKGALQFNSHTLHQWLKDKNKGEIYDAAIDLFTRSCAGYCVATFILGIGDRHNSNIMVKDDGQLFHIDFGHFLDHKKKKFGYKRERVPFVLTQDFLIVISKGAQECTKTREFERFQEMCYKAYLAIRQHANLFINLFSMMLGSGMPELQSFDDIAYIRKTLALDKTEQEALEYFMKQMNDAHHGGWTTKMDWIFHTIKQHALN

[7] = Volume of distribution at steady state in Sprague-Dawley rat at 1 mg/kg, iv and 2 mg/kg, po; type: ADME, organism-based; conditions: in vivo, read-out: Vdss
[8] = Plasma protein binding in Sprague-Dawley rat at 1 mg/kg, iv and 2 mg/kg, po; type: ADME, organism-based; conditions: read-out: PPB (converted)
[9] = molecular target: T1, Serine/threonine-protein kinase mTOR; remark: listed apart in the source
[10] = Intrinsic clearance in rat liver microsomes; type: ADME, Microsome
[11] = Solubility of compound in 0.01 N HCL; type: physicochemical; conditions: buffer
[12] = test system: Liver; assay: Intrinsic clearance in rat liver hepatocytes; type: ADME, cell-based, Hepatocyte
[13] = Half life in Sprague-Dawley rat at 1 mg/kg, iv; type: ADME, organism-based; design: dose 1 mg/kg, route intravenous; conditions: in vivo
[14] = Intrinsic clearance in human liver microsomes; type: ADME, Microsome
[15] = molecular target: T1, Serine/threonine-protein kinase mTOR; remark: listed apart in the source
Description: Inhibition of mTOR in human U-87 cells assessed as inhibition of phosphorylation of AKT at S473

[16] = molecular target: Phosphatidylinositol 4,5-bisphosphate 3-kinase catalytic subunit beta isoform (Homo sapiens, UniProt P42338)
Phosphatidylinositol 4,5-bisphosphate 3-kinase catalytic subunit beta isoform, sequence (P42338 whole entry, canonical isoform): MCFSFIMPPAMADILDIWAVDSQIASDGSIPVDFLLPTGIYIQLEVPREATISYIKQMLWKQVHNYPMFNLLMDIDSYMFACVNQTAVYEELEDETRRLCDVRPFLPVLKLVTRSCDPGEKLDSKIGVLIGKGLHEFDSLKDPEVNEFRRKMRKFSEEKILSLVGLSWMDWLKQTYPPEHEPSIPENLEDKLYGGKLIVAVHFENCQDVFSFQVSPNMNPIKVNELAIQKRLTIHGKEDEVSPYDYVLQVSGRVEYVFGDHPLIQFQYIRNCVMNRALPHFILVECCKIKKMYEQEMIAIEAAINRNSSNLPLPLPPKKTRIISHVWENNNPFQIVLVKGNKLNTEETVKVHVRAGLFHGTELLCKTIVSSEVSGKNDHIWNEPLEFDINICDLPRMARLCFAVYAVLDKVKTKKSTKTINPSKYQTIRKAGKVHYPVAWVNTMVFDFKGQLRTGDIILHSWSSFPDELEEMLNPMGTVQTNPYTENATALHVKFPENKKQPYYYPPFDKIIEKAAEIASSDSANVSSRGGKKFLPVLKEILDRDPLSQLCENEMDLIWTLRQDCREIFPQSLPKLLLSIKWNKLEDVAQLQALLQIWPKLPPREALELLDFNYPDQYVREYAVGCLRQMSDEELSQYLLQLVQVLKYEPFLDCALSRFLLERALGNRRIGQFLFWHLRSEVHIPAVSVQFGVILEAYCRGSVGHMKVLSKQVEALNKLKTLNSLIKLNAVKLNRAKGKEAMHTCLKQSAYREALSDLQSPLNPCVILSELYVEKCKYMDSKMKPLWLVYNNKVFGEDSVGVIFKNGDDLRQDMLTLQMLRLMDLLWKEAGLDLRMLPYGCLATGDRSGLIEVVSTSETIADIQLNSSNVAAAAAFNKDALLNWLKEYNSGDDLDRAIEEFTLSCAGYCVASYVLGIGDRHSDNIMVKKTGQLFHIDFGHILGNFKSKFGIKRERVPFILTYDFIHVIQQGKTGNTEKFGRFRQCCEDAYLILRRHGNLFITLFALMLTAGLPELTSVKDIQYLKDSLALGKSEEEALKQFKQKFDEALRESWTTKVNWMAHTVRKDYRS

[17] = test system: Rattus norvegicus; assay: AUC in Sprague-Dawley rat at 1 mg/kg, iv; type: ADME, organism-based, Plasma; design: dose 1 mg/kg, route intravenous; conditions: in vivo
[18] = molecular target: Phosphatidylinositol 4,5-bisphosphate 3-kinase catalytic subunit gamma isoform (Homo sapiens, UniProt P48736)
Phosphatidylinositol 4,5-bisphosphate 3-kinase catalytic subunit gamma isoform, sequence (P48736 whole entry, canonical isoform): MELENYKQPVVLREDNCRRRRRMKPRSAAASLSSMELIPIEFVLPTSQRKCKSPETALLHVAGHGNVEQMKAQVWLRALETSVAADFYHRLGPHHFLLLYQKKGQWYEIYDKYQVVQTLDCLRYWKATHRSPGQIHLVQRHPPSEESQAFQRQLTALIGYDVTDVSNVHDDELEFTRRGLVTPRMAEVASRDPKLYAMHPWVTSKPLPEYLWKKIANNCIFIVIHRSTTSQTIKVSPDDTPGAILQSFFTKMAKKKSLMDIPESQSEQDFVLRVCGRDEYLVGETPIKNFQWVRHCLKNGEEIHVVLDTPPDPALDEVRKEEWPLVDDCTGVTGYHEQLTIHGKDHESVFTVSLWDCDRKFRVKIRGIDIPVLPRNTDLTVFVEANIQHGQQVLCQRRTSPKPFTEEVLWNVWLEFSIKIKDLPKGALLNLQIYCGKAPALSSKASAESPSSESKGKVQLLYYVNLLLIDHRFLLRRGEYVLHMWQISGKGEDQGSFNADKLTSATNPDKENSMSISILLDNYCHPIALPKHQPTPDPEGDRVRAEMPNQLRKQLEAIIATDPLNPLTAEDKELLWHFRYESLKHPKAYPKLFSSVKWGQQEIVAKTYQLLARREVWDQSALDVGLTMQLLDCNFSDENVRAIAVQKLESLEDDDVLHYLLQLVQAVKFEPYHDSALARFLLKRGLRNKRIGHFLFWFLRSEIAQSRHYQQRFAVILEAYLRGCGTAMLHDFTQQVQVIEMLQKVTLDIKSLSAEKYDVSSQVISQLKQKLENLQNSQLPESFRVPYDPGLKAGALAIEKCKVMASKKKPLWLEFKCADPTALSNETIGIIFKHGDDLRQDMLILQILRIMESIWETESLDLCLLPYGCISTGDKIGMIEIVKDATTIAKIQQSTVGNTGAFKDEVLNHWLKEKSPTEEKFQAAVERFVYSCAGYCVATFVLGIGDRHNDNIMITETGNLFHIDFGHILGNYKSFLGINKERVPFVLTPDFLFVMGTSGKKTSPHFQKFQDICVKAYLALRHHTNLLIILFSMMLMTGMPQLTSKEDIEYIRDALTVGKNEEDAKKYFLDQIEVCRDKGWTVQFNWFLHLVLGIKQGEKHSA

[19] = test system: Rattus norvegicus; assay: AUC in Sprague-Dawley rat at 5 mg/kg, po; type: ADME, organism-based, Plasma; design: dose 5 mg/kg, route oral; conditions: in vivo
[20] = Half life in Sprague-Dawley rat at 5 mg/kg, po; type: ADME, organism-based; design: dose 5 mg/kg, route oral; conditions: in vivo
[21] = molecular target: Receptor-type tyrosine-protein kinase FLT3 (Homo sapiens) (UniProt P36888); assay: Inhibition of FLT3 at 1 uM relative to control
Receptor-type tyrosine-protein kinase FLT3 (Homo sapiens), sequence (P36888 whole entry): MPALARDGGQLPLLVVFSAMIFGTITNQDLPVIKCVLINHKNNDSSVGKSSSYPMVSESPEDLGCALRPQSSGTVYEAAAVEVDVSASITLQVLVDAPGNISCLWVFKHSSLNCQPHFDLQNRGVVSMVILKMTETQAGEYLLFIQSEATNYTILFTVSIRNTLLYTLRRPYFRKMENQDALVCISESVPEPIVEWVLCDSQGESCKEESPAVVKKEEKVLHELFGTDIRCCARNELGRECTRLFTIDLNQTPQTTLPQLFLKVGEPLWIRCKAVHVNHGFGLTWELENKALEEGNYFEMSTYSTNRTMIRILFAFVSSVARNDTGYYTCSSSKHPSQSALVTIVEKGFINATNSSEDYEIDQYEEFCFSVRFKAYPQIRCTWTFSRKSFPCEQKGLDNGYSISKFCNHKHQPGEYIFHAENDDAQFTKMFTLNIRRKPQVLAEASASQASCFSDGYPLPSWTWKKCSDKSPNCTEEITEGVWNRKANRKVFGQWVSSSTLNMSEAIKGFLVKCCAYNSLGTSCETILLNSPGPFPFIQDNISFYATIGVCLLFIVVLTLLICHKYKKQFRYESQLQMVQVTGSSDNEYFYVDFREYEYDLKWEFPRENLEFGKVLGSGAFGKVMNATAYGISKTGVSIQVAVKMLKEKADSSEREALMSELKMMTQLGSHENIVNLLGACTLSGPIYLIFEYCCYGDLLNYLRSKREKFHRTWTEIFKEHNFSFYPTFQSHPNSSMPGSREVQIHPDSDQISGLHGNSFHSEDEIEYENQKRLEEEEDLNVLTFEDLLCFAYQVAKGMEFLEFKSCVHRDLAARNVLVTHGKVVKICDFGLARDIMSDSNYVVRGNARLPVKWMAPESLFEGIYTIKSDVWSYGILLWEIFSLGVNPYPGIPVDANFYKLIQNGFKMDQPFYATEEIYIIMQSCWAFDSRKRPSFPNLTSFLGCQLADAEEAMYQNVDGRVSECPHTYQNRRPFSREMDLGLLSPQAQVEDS

[22] = molecular target: Casein kinase II subunit alpha (Homo sapiens) (UniProt P68400); assay: Inhibition of CSNK2A1 at 1 uM relative to control
Casein kinase II subunit alpha (Homo sapiens), sequence (P68400 whole entry, looked up): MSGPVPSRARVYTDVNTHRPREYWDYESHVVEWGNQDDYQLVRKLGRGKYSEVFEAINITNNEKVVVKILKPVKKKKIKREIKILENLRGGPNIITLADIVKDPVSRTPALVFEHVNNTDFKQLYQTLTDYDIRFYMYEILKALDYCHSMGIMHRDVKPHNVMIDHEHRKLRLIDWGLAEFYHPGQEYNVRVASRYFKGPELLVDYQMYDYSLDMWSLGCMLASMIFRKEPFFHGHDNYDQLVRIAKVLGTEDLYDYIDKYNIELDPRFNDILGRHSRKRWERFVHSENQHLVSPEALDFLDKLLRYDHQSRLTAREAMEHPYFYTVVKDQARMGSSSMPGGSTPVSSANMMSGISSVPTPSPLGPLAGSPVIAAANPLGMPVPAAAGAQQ

[23] = Clearance in Sprague-Dawley rat at 0.5 mg/kg, iv; type: ADME, organism-based; design: dose 0.5 mg/kg, route intravenous; conditions: in vivo
[24] = Volume of distribution at steady state in Sprague-Dawley rat at 0.5 mg/kg, iv; type: ADME, organism-based; design: dose 0.5 mg/kg, route intravenous; conditions: in vivo, read-out: Vdss
[25] = test system: Rattus norvegicus; assay: AUC in Sprague-Dawley rat at 0.5 mg/kg, iv; type: ADME, organism-based, Plasma; design: dose 0.5 mg/kg, route intravenous; conditions: in vivo
[26] = Half life in Sprague-Dawley rat at 0.5 mg/kg, iv; type: ADME, organism-based; design: dose 0.5 mg/kg, route intravenous; conditions: in vivo

SMILES | bioavailability [2] [%] | IC50 [3] [nM] | IC50 [5] [nM] | IC50 [6] [nM] | fraction unbound [8] | IC50 [9] [nM] | IC50 [15] [nM] | IC50 [16] [nM] | IC50 [18] [nM] | also measured
Cc1nc(N)nc(-n2c(Nc3ccn[nH]3)nc3ccccc32)n1 | 6.3 | 390 | 510 | 800 | 0.028 | 27 | 55 | 870 |  | Activity [1]: Active; clearance [4]: 31.7 mL/min/kg; Vd [7]: 1.1 L/kg; microsomal CLint [10]: 52 µL/min/mg; solubility [11]: 37 µg/mL (≈ 120 µM); CL [12]: 28 µL/min/mg; half-life [13]: 43.2 min; microsomal CLint [14]: 79 µL/min/mg; AUC [17]: 1680 nM
Cc1nc(NCCC#N)nc(-n2c(Nc3cc[nH]n3)nc3ccccc32)n1 |  | 1300 | 5800 | 7700 |  | 60 | 82 | 15400 | 6200 | AUC [19]: 1020 nM; half-life [20]: 42 min
Cc1nc(N)nc(-n2c(Nc3cccc(O)c3)nc3ccccc32)n1 |  | 150 | 3 | 4 |  | 7 | 9 | 9 | 8 | inhibition [21]: 14%; inhibition [22]: 15%
Cc1nc(NCC#N)nc(-n2c(Nc3ccn[nH]3)nc3ccccc32)n1 | 0 | 600 | 4000 | 6200 | 0.016 | 31 | 73 | 8500 | 3600 | clearance [23]: 41.7 mL/min/kg; Vd [24]: 1.5 L/kg; AUC [25]: 559 nM; half-life [26]: 27 min
